The text below walks through data of paper PMC6930223 (Scientific Reports, 2019).

The subject of one series is hERG1b. As to the kind of experiment: Immunofluorescence surface expression (CTCF/area) in HEK293-hERG1a/1b cells. The series is classed as cell-based, human. To be noted: 24 h. As for the experimental part:
(§1) Briefly, cells were first seeded onto 24 mm × 24 mm pre-coated glass cover slips (Leica Microsystems, Germany) in a 6 well plate containing 10% (v/v) FBS-complete DMEM medium. The sterile glass cover slips (Leica Microsystems, Germany) were coated with HistoGrip (Invitrogen, USA) before use. Cells were first cultured in fresh medium containing 0.5% (v/v) FBS for 4 h before replenishing with medium containing arsenic trioxide (positive control) or mitragynine for 24 h. Medium containing 0.1% (v/v) DMSO was used as control. After incubation, the monolayer cells were fixed with 4% (w/v) paraformaldehyde and incubated for 15 min at room temperature, followed by rinsing with PBST solution and incubating with 0.1% (v/v) Triton X-100 solution for 2 min. Subsequently blocking was performed with 3% (w/v) BSA for 1 h and followed by incubation with primary antibodies against hERG1a (1:1000) and hERG1b (1:125) at 4 °C overnight. Immunolabelling was carried out using anti-rabbit IgG F(ab’)2 Alexa Fluor® 488 molecular probes (Cell Signaling, USA) diluted at 1:250 in 3% (w/v) BSA at room temperature. Finally, the cover slips were mounted using Fluoroshield™ with DAPI (Sigma-Aldrich, USA) and viewed under 600x magnification using Nikon C2 confocal microscope (Nikon, USA). The excitation/emission wavelengths for Alexa Fluor 488 and DAPI were 488/512 nm and 405/488 nm respectively. The laser imaging settings such as laser power, gain and amplification factor were set to be similar for all samples. […] For each test sample, at least 20 cells were randomly selected from the 15 spots for quantitation. The green fluorescence intensity was quantified using ImageJ software (http://imagej.nih.gov/ij/)[72],[73]. Intensity was represented as the “corrected total cell fluorescence” (CTCF) per area using the equation “CTCF/area = [Integrated density - (Area of selected cell × Mean fluorescence of background readings)]/Area of selected cell”. Relative protein expression of hERG1a and hERG1b was determined by dividing the mean CTCF/area of treated cells to that of the untreated control. […]

A further series has as its system hERG1a. The description is as above. Format: cell-based, human. To be noted: 10 µM, 24 h, control 0.1% (v/v) DMSO. As for the experimental part:
as §1

The test system of series [1] is GIRK (G protein-coupled inward rectifier potassium) channels. More on the design: method as in PMID 27260674. The conditions noted are these: heterologous expression systems; cited from earlier work.
Series [2] has as its system hERG1a protein (fg 155 kDa, cg 135 kDa). As to the kind of experiment: Western blot protein expression in HEK293-hERG1a/1b cells. The series is classed as cell-based, human. To be noted: 24 h. As to the method:
(§2) Total protein was isolated using RIPA lysis buffer system (Santa Cruz Biotechnology, Inc., USA). Equal amounts of protein samples were loaded onto 7.5% (v/v) polyacrylamide gels and were subsequently transferred to Immobilon®-P PVDF membrane (Millipore, USA) using Trans-Blot® Turbo™ Blotting System (Bio-Rad Laboratories, USA). Blots were blocked with 3% (w/v) skim milk for 1 h and probed with optimized primary antibodies against hERG1a (1:5000), hERG1b (1:1250), Hsp70 (1:10, 000), Hsp90 (1:5000) and β-actin (1:5000) overnight at 4 °C. Finally, the blots were then incubated in horseradish peroxidase (HRP) conjugated secondary antibody (1:1000) for 2.5 h followed by Clarity™ Western ECL substrate (Bio-Rad Laboratories, USA). The antibodies used for Western blotting were rabbit hERG1a polyclonal antibody (Enzo Life Sciences, USA), rabbit hERG1b polyclonal antibody (Enzo Life Sciences, USA), rabbit Hsc70/Hsp70 polyclonal antibody (Enzo Life Sciences, USA), rabbit Hsp90 polyclonal antibody (Enzo Life Sciences, USA), rabbit β-actin antibody (Cell Signaling, USA) and anti-rabbit IgG HRP-linked antibody (Cell Signaling, USA). Chemiluminescence signal was detected using ChemiDoc™ XRS Imaging System (Bio-Rad Laboratories, USA). Band densities were scanned and quantified using Image Lab Software (Bio-Rad Laboratories, USA). The signal for each protein band was normalized to the reference protein, β-actin. Experiments were conducted in duplicate and represented as mean fold changes of three independent experiments.
On the technique in general: Immunoblotting shows a protein as a band on a membrane.

Series [3] concerns hERG1b protein (fg 95 kDa, cg 80 kDa). The description is as above. Format: cell-based, human. To be noted: all concentrations, 24 h. As to the method: as §2
The test system of series [4] is rapidly delayed rectifier potassium current (IKr) in hiPSC-CMs. On the set-up: method as in PMID 25535742. To be noted: cited from earlier work.
Another series concerns HEK293-hERG1a/1b cells. Kind of series: Cell proliferation assay (CellTiter 96 AQueous One), 72 h. The series is classed as cell-based, human. As for the experimental part: Trypan blue exclusion test was carried out to determine the effect of transfection on HEK293-hERG1a/1b cell viability. Briefly, cell suspension was mixed with 0.4% (v/v) trypan blue solution in a ratio of 1:1 and the viability of the cells were analyzed using Countess® II FL automated cell counter (Invitrogen, USA). For cell proliferation assay, cells were first seeded at a density of 5000 cells/well onto two 96-well plates (T0 and T1) and were incubated at 37 °C for 24 h in a humidified incubator supplemented with 5% (v/v) CO2. Subsequently, cells in T0 plate were subjected to cell proliferation assay as described previously. Meanwhile, cells in T1 plate were cultured in reduced serum medium (0.5% v/v FBS) for 4 h and treated with various concentrations of mitragynine. After 72 h, cell proliferation was determined using CellTiter 96® AQueous One Solution Cell Proliferation Assay (Promega, USA) following manufacturer’s protocol. Cell proliferation results were expressed as percentage growth (PG)[65]. The response parameters GI50 (half maximal growth inhibitory concentration), TGI (total growth inhibition) and LC50 (half maximal lethal concentration) values were derived from a non-linear regression model (curvefit) based on dose response-inhibition curve and computed using GraphPad Prism® 5.01 (GraphPad Software, USA). The GI50, TGI and LC50 are interpolated values representing the concentrations at which the PG is +50, 0 and −50 respectively. Data are presented as mean PG for three independent experiments.

Regarding mitragynine, the hERG1b fluorescence intensity entry in the series on hERG1b (1 µM) is recorded as “unaffected”. Also, the hERG1b fluorescence intensity entry with hERG1b (10 μM) is “unaffected”. Also, the “hERG1a fluorescence intensity vs control” value in the series on hERG1a was “significant reduction to approximately half of the intensity”. Moreover, the “effect on GIRK channels” value in series [1] is on record as “inhibit”. In series [2] (10 µM, vs untreated control), the “increase of cg-hERG1a expression” value is roughly 50% and the “reduction of fg-hERG1a expression” value is “approximately 22.3%”. Further, in series [2] (0.001–1 µM), the “expression of cg-hERG1a” value was “unaffected” and the “protein expression of fg-hERG1a” value is reported as “no clear pattern”. Besides, in series [3], the cg-hERG1b protein expression entry is reported as “no significant changes” and the fg-hERG1b protein expression entry is listed as “no significant changes”. Besides, in series [4] (10 µM, hiPSC-CMs), the “action potential duration at 50 and 90% repolarization (APD50 and APD90)” value is reported as “significantly prolonged”. Further, in series [4] (read-out: IC50 of IKr suppression in hiPSC-CMs), the IC50 – broadly, the point on the concentration scale where inhibition reaches its midpoint – is 0.91 µM. In the series with HEK293-hERG1a/1b cells, halving of growth (GI50) required 30.2 µM; the LC50 (as a rule, the concentration lethal to half of the exposed cells or organisms) stood at 85.1 µM; the TGI – broadly, the concentration giving total growth inhibition – is reported as 57.68 µM.
